Reference: paper PMC12689952 (Frontiers in Pharmacology, 2025)
Read-outs that look alike come from different tables or passages of the source.

What was measured:
CYP3A4 = target: T1, CYP3A4 (Homo sapiens, UniProt P08684); assay: Cytochrome P450 inhibition assay in human liver microsomes (testosterone substrate); type: in vitro ADME
T1 construct: Following the addition of human liver microsomes (HLM) and specific substrates; from tissue; host or cells: human liver microsomes
Method: (§1) The Cytochrome P450 (CYP450) inhibition assay was performed to assess GAL (1–15) using substrates specific for the CYP3A4, CYP2D6, and CYP2C9 isoforms. […] Following the addition of human liver microsomes (HLM) and specific substrates (testosterone for CYP3A4, dextromethorphan for CYP2D6, diclofenac for CYP2C9), reactions were incubated with shaking at 180 Hz (CYP3A4: 15 min; CYP2D6: 30 min; CYP2C9: 45 min). […] Reactions were quenched with acetonitrile, centrifuged, and analyzed using LC-MS/MS with a triple quadrupole mass spectrometer (AB SCIEX API4000) coupled to an Agilent 1290 HPLC system ([Fowler et al., 2022]). Data were processed using Genedata Screener software to calculate IC50 values.

CYP2C9 = CYP2C9 (Homo sapiens, UniProt P11712); assay: Cytochrome P450 inhibition assay in human liver microsomes (diclofenac substrate)
CYP2C9, sequence (P11712 whole entry): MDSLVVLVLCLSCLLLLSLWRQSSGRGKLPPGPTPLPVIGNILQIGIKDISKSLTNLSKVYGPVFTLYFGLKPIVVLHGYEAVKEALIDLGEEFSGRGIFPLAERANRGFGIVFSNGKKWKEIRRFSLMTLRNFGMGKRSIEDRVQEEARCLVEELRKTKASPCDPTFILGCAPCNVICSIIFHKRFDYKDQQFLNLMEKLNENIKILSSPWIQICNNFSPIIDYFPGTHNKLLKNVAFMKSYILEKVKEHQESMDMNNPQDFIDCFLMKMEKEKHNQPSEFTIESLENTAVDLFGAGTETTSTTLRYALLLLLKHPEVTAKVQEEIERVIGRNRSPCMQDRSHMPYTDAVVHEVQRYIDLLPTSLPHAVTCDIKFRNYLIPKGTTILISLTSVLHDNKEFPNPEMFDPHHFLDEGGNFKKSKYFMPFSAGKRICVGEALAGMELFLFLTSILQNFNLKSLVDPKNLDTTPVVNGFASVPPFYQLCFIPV
Method: as §1

rats [1] = tested on: rats; parameters: method as in Millón et al., 2019b; details: voluntary intake model; ref Millón et al., 2019b; cited from earlier work
rats [2] = tested on: rats; parameters: method as in Millón, 2014; details: 3 nmol intracerebroventricular; ref Millón, 2014; cited from earlier work
CHO cells = details: 24 h
Method: The study followed OECD Test Guideline 487 for micronucleus assessment in rodent CHO cells (ECACC ref: 85050302). Cells were seeded at 2,000/well in 96-well plates and incubated at 37 °C with 5% CO2. GAL (1–15) (2.52 mM stock) was tested at concentrations ranging from 3.12 to 50 μM for 24 h in six replicates. […] After treatment, cytochalasin B was added for 28 h to block cytokinesis, followed by fixation and Hoechst staining. Imaging was performed using the Operetta CLS High-Content Analysis System, and analysis was conducted with Harmony software and the in-house NucleusFinder App (ImageJ-based). NucleusFinder identified valid micronuclei under stringent criteria, excluding irregular structures ([Durcik et al., 2023]). The cytokinesis-block proliferation index (CBPI) was calculated to assess cytostatic effects, ensuring cytostasis remained below 60% to avoid secondary micronuclei induction due to cytotoxicity. Cytostasis was calculated as follows: %cytostasis = 100–100 [(CBPIT-1)/(CBPIC-1)] where T is the test compound treatment culture, C is the vehicle control culture, and CBPI = {(No. mononucleate cells) + (2 × No. binucleate cells) + (3 × No. multinucleate cells)}/(total number of cells).

CYP2D6 = CYP2D6 (Homo sapiens, UniProt P10635); assay: Cytochrome P450 inhibition assay in human liver microsomes (dextromethorphan substrate)
CYP2D6, sequence (P10635 whole entry): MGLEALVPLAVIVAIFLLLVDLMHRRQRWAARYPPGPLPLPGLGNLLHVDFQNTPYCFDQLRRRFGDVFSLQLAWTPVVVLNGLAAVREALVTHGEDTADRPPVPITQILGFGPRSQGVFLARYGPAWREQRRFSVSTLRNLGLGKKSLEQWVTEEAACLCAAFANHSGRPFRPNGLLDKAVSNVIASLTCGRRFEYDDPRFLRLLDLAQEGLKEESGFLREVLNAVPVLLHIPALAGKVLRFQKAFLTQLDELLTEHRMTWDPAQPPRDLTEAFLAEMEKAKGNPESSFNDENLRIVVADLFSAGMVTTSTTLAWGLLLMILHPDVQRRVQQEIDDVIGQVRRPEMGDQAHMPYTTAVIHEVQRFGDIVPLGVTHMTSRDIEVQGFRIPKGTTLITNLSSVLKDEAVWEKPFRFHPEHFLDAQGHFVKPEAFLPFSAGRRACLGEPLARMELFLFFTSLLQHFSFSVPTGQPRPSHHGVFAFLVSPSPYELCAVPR
Method: as §1

Sprague Dawley rats [3] = assay: Operant alcohol self-administration test after intranasal administration; type: in vivo, rat; details: 75 μg intranasal, 1 h before test
Method: (§2) Male Sprague Dawley rats (body weight 200–225 g) were obtained from Charles River (Barcelona, Spain) and maintained in a humidity-controlled and temperature-controlled (20 °C–22 °C) room. Rats were maintained during the alcohol protocol on a 12-h reversed light/dark cycle (lights off at 9 a.m.). All animal experimentation was conducted in accordance with the University of Málaga Guidelines for the Care and Use of Laboratory Animals (Ethic Code: 22/05/2017/066).
(§3) Animals were preacclimated to the procedure and handled daily for 3 days to reduce stress. Rats were administered under light anaesthesia with isoflurane (3%–4% for induction and 1.5%–2% for maintenance) for approximately 2–3 min, sufficient to prevent movement during intranasal administration. A single intranasal infusion of GAL (1–15) (TOCRIS, Bristol, United Kingdom, molecular weight = 1557 g/mol) was administered at doses of 37.5 μg, 75 μg, 150 μg, or 300 μg, equivalent to those used with other peptides ([Serova et al., 2013]; [Serova et al., 2019]). Doses were dissolved in 20 μL of distilled water, with 10 μL administered into each nostril using a disposable plastic-tipped pipette, without inserting deeply, 30 min or 1 h before behavioral testing, as described previously ([Serova et al., 2013]; [Serova et al., 2019]). Care was taken to avoid contact with the intranasal mucosa. After intranasal administration, the animal’s head was held back for approximately 15 s to prevent loss of solution from the nostrils. Animals returned to normal behavior within 1–2 min, and no subjects needed to be withdrawn due to intolerance.
Training and testing were conducted in standard operant chambers (Panlab, Barcelona, Spain). Each chamber (250 mm W × 250 mm D × 250 mm H) was equipped with a drinking reservoir positioned 4 cm above the grid floor in the center of the front panel of the chamber, and two retractable levers were located 3 cm to right an left of the dinking receptacle. Each reservoir was calibrated to dispense 0.1 mL when the fixed ratio of lever presses was obtained. Chambers were connected to a computer running Packwin Sofware (2.0, Panlab, Barcelona, Spain).
Alcohol consumption was assessed using the previous self-administration test ([Cantero-García et al., 2022a]; [Cantero-García et al., 2022b]; [Lebourgeois et al., 2018]) (Figure 1B). Briefly, rats were exposed to intermittent consumption of 0.2% saccharin and 10% alcohol for 3 weeks. After that, rats were placed on a water restriction schedule for 2–4 days to facilitate training in lever pressing. […]

hERG potassium channel = hERG potassium channel (Homo sapiens, UniProt Q12809); assay: hERG inhibition, FluxOR potassium assay in hERG-expressing HEK293 cells
hERG potassium channel, sequence (Q12809 whole entry): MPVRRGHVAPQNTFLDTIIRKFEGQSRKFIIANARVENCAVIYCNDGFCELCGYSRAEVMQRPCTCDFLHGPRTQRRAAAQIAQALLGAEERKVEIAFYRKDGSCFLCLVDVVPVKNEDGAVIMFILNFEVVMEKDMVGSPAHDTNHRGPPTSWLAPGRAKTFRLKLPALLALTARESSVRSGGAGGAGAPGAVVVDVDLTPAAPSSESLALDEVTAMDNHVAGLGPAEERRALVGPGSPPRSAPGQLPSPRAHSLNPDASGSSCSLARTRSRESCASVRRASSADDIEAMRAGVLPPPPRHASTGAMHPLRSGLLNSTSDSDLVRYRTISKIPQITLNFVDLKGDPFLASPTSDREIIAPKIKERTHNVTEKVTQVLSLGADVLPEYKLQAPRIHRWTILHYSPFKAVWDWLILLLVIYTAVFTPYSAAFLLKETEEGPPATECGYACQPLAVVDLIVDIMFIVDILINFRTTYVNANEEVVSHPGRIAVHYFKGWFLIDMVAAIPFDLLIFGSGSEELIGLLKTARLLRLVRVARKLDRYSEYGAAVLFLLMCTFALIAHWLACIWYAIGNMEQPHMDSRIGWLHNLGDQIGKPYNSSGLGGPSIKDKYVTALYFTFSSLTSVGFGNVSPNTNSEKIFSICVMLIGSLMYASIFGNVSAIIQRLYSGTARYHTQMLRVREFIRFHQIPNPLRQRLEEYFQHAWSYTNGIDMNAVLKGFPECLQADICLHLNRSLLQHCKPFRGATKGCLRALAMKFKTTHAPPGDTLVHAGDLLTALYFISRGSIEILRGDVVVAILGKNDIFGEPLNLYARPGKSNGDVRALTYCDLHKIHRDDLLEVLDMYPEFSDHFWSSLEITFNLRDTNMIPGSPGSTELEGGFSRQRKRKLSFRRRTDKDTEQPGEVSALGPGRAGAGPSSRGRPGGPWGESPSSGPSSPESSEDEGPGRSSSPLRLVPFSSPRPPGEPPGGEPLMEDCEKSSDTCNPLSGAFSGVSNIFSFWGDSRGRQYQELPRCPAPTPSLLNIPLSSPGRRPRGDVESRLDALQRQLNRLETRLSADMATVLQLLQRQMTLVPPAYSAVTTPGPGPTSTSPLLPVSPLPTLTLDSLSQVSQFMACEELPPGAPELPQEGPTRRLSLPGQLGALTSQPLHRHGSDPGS
Method: Cardiotoxicity of GAL (1–15) was assessed in hERG-expressing HEK cells using the FluxOR™ potassium assay (Invitrogen) on a FLIPR TETRA system. Cells were preloaded with FluxOR™ dye, followed by incubation with GAL (1–15) in a 10-point half-log dose-response curve (max concentration: 50 µM). After a 30-min equilibration, the thallium stimulation buffer was injected to measure potassium flux kinetics. […] Data were analyzed using Genedata Screener software, with IC50 values determined via the Hill model ([Annang et al., 2021]; [Lee et al., 2019]).

Sprague Dawley rats [4] = assay: Forced swimming test (FST) after intranasal administration; type: in vivo, rat; details: for Climbing / Immobility / Swimming: mean ± SEM
Method: as §2, §3
Depressive behavior was assessed using the FST, as described previously ([Millón et al., 2014]; [Cantero-García et al., 2022b]). Briefly, two swimming sessions were conducted: a 15-min pretest followed 24 h later by a 5-min test. Animals were individually placed in a vertical glass cylinder of 20 cm diameter containing water (25 °C) to a height of 30 cm. Immobility, swimming and climbing behaviors were evaluated and recorded during the second 5-min test. Behavioral scoring was conducted by a blinded experimenter using coded videos to ensure objectivity.
Two experiments were conducted in the FST (Figure 1A). A dose-response curve of GAL (1–15) was performed in the first set of experiments. For this, groups of rats received GAL (1–15) intranasally 37.5 μg (n = 6), 75 μg (n = 6), 150 μg (n = 6) or 300 μg (n = 6) or distilled water (n = 12) 30 min before the test. The effects in the FST of GAL (1–15) intranasally at 1 h were studied in the second set of experiments. For this, groups of rats received GAL (1–15) intranasal 37.5 μg (n = 8), 75 μg (n = 8) or distilled water (n = 4–5) 1 h before the test. Animals were randomly assigned to treatment groups.

rats [5] = tested on: rats; parameters: method as in Cantero-García et al., 2022a; details: 3 nmol intracerebroventricular; ref Cantero-García et al., 2022a; cited from earlier work
[6] = 37.5 μg intranasal, 1 h before test
[7] = 75 μg intranasal, 1 h before test, p < 0.05 vs control
[8] = 150 μg intranasal, 30 min before test, p < 0.05
[9] = 300 μg intranasal, 30 min before test, p < 0.05

T1 sequence (P08684 whole entry): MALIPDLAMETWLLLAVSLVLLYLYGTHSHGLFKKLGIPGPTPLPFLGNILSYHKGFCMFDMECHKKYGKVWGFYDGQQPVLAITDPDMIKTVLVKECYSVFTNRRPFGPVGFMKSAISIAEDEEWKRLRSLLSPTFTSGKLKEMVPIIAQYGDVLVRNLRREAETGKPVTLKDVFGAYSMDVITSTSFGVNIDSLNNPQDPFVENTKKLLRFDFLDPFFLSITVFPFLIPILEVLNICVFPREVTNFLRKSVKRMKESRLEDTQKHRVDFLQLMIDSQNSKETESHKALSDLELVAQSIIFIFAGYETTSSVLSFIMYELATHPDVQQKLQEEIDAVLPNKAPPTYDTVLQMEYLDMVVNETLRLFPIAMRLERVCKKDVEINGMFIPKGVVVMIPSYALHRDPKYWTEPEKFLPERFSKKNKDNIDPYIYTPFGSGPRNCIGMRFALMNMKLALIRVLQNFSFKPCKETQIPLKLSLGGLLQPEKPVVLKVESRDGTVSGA

CC(C)C[C@H](NC(=O)[C@H](CC(C)C)NC(=O)[C@H](Cc1ccc(O)cc1)NC(=O)CNC(=O)[C@H](C)NC(=O)[C@H](CO)NC(=O)[C@H](CC(N)=O)NC(=O)[C@H](CC(C)C)NC(=O)[C@@H](NC(=O)[C@H](Cc1c[nH]c2ccccc12)NC(=O)CN)[C@@H](C)O)C(=O)NCC(=O)N1CCC[C@H]1C(=O)N[C@@H](Cc1cnc[nH]1)C(=O)N[C@@H](C)C(=O)O [GAL (1–15), Galanin (1–15)]
CYP3A4 inhibitory potency class (CYP3A4): weak (weak inhibitors (IC50 > 10 μM)) | IC50 at 15 min (CYP3A4; pH 7.4, testosterone substrate, N = 3, read-out: CYP3A4 IC50 [lower and upper 95%]): > 23 µM | IC50 (CYP3A4; testosterone substrate, N = 3, read-out: CYP3A4 IC50 [lower and upper 95%]): > 26 µM | IC50 (CYP2C9): > 26 µM | CYP2C9 inhibitory potency class (CYP2C9; human liver microsomes): weak (weak inhibitors (IC50 > 10 μM)) | IC50 at 45 min (CYP2C9; human, microsomes, pH 7.4): > 23 µM | Decrease in alcohol preference and consumption (rats [1]): 90% | Decrease in climbing behavior in FST (rats [2]): 46% | Increase in immobility in FST (rats [2]): 44% | % Cytostasis (CHO cells; 3.125 µM): 0% | % MN (CHO cells; 3.125 µM): 8.39% | No. binucleate cells (CHO cells; 3.125 µM): 3,324 | No. of binucleated cells with MN (CHO cells; 3.125 µM): 278 | % Cytostasis (CHO cells; 6.25 µM): 0% | % MN (CHO cells; 6.25 µM): 8.28% | No. binucleate cells (CHO cells; 6.25 µM): 3,210 | No. of binucleated cells with MN (CHO cells; 6.25 µM): 265 | % Cytostasis (CHO cells; 12.5 µM): 0% | % MN (CHO cells; 12.5 µM): 8.53% | No. binucleate cells (CHO cells; 12.5 µM): 3,209 | No. of binucleated cells with MN (CHO cells; 12.5 µM): 273 | % Cytostasis (CHO cells; 25 µM): 0% | % MN (CHO cells; 25 µM): 8.70% | No. binucleate cells (CHO cells; 25 µM): 3,135 | No. of binucleated cells with MN (CHO cells; 25 µM): 272 | % Cytostasis (CHO cells; 50 µM): 0.1% | % MN (CHO cells; 50 µM): 7.94% | No. binucleate cells (CHO cells; 50 µM): 3,108 | No. of binucleated cells with MN (CHO cells; 50 µM): 246 | Micronucleus formation (CHO cells; any tested concentration, highest 50 μM): did not induce micronucleus formation | IC50 (CYP2D6): > 26 µM | CYP2D6 inhibitory potency class (CYP2D6; human liver microsomes): weak (weak inhibitors (IC50 > 10 μM)) | IC50 at 30 min (CYP2D6; human, microsomes, pH 7.4): > 23 µM | Total number of inactive lever presses vs control (Sprague Dawley rats [3]): did not significantly differ | Active lever presses vs control (Sprague Dawley rats [3]; 30-min session, p < 0.01): significantly reduced | Number of alcohol reinforcements vs control (Sprague Dawley rats [3]; 30-min session, p < 0.01): marked decrease | Inactive lever presses (Sprague Dawley rats [3]; mean ± SEM): 0.2 ± 0.1 | IC50 (hERG potassium channel; Cardiotoxicity classification from hERG IC50, FluxOR potassium assay, HEK293-hERG): > 10 µM | IC50 (hERG potassium channel; hERG IC50, HEK293 cells stably expressing hERG, FluxOR potassium assay, n = 3): 20.9 µM | Behavioral effects in the FST (Sprague Dawley rats [4]; 37.5 μg intranasal, 30 min before test): did not produce significant behavioral effects | Immobility, swimming, or climbing behaviors in FST vs control (Sprague Dawley rats [4]; [6]): no significant alterations | Climbing (Sprague Dawley rats [4]; [6]): 109.6 ± 16.26 s | Immobility (Sprague Dawley rats [4]; [6]): 59.10 ± 23.04 s | Swimming (Sprague Dawley rats [4]; [6]): 97.75 ± 16.01 s | Immobility time in FST vs control (Sprague Dawley rats [4]; 75 μg intranasal, 30 min before test, p < 0.001): significant increase in immobility time | Swimming time in FST vs control (Sprague Dawley rats [4]; 75 μg intranasal, 30 min before test, p < 0.01): significantly decreased swimming time | Swimming (Sprague Dawley rats [4]; 75 μg intranasal, 1 h before test): 104.9 ± 15.86 s | Climbing (Sprague Dawley rats [4]; [7]): 62.96 ± 6.47 s | Immobility (Sprague Dawley rats [4]; [7]): 98.57 ± 18.74 s | Immobility time in FST vs control (Sprague Dawley rats [4]; 75 μg intranasal, 1 h before test, p < 0.05): increasing immobility time | Climbing time in FST vs control (Sprague Dawley rats [4]; 75 μg intranasal, 1 h before test, p ≤ 0.05): reducing climbing time | Immobility in FST vs control (Sprague Dawley rats [4]; [8]): significant increase in immobility | Swimming time in FST vs control (Sprague Dawley rats [4]; [8]): reduction in swimming time | Immobility in FST vs control (Sprague Dawley rats [4]; [9]): significant increase in immobility | Swimming time in FST vs control (Sprague Dawley rats [4]; [9]): reduction in swimming time | Climbing time in FST (Sprague Dawley rats [4]; any of the tested doses (37.5-300 μg) intranasal, 30 min before test): No effects were observed | Number of alcohol reinforcements (rats [5]): significantly reduced
